Test results published in the supplement of paper PMC10307832.

Columns and labels:
Assay in all cases: relative viability (nuclei count vs DMSO), 5 days (fraction); higher = more cells survive
AT9283 + AZD7762 = compound: O=C(Nc1c[nH]nc1-c1nc2ccc(CN3CCOCC3)cc2[nH]1)NC1CC1 [AT9283] + NC(=O)Nc1cc(-c2cccc(F)c2)sc1C(=O)N[C@H]1CCCNC1 [AZD7762] (partner 0.2 µM)
Outline: (§1)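 Values are medians from duplicate plates. Each reflects relative viability, defined as the nuclei count of treated wells over that of vehicle wells. Lung cancer cell lines in 1536-well plates were pin-tool dosed one day after seeding with one drug alone or with a fixed anchor-drug dose plus five library-drug doses (not always all listed) in √10 steps, then fixed, stained and imaged at 4× after 5 days.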

Erlotinib + Decitabine = compound: C#Cc1cccc(Nc2ncnc3cc(OCCOC)c(OCCOC)cc23)c1 [Erlotinib] + Nc1ncn([C@H]2C[C@H](O)[C@@H](CO)O2)c(=O)n1 [Decitabine] (partner 2 µM)
Outline: as §1

AT9283 + Navitoclax = compound: O=C(Nc1c[nH]nc1-c1nc2ccc(CN3CCOCC3)cc2[nH]1)NC1CC1 [AT9283] + CC1(C)CCC(c2ccc(Cl)cc2)=C(CN2CCN(c3ccc(C(=O)NS(=O)(=O)c4ccc(N[C@H](CCN5CCOCC5)CSc5ccccc5)c(S(=O)(=O)C(F)(F)F)c4)cc3)CC2)C1 [Navitoclax] (partner 0.5 µM)
Outline: as §1

AT9283 + Vorinostat = compound: O=C(Nc1c[nH]nc1-c1nc2ccc(CN3CCOCC3)cc2[nH]1)NC1CC1 [AT9283] + O=C(CCCCCCC(=O)Nc1ccccc1)NO [Vorinostat] (partner 1 µM)
Outline: as §1

AT9283 + Pictilisib = compound: O=C(Nc1c[nH]nc1-c1nc2ccc(CN3CCOCC3)cc2[nH]1)NC1CC1 [AT9283] + CS(=O)(=O)N1CCN(Cc2cc3nc(-c4cccc5[nH]ncc45)nc(N4CCOCC4)c3s2)CC1 [Pictilisib] (partner 1 µM)
Outline: as §1

Cell Line | relative viability (AT9283 + AZD7762; first compound 0.003 µM) | relative viability (AT9283 + AZD7762; first compound 0.03 µM) | relative viability (AT9283 + AZD7762; first compound 0.09487 µM) | relative viability (AT9283 + AZD7762; first compound 0.3 µM) | relative viability (Erlotinib + Decitabine; first compound 0.02 µM) | relative viability (Erlotinib + Decitabine; first compound 0.2 µM) | relative viability (Erlotinib + Decitabine; first compound 0.6325 µM) | relative viability (Erlotinib + Decitabine; first compound 2 µM) | relative viability (AT9283 + Navitoclax; first compound 0.003 µM) | relative viability (AT9283 + Navitoclax; first compound 0.03 µM) | relative viability (AT9283 + Navitoclax; first compound 0.09487 µM) | relative viability (AT9283 + Navitoclax; first compound 0.3 µM) | relative viability (AT9283 + Vorinostat; first compound 0.003 µM) | relative viability (AT9283 + Vorinostat; first compound 0.03 µM) | relative viability (AT9283 + Vorinostat; first compound 0.09487 µM) | relative viability (AT9283 + Vorinostat; first compound 0.3 µM) | relative viability (AT9283 + Pictilisib; first compound 0.003 µM) | relative viability (AT9283 + Pictilisib; first compound 0.03 µM) | relative viability (AT9283 + Pictilisib; first compound 0.09487 µM) | relative viability (AT9283 + Pictilisib; first compound 0.3 µM)
NCI-H838 | 0.968 | 0.705 | 0.612 | 0.655 | 0.507 | 0.48 | 0.488 | 0.465 | 1.32 | 0.333 | 0.239 | 0.213 | 0.68 | 0.221 | 0.194 | 0.24 | 0.544 | 0.265 | 0.182 | 0.216
LXF-289 | 1.11 | 0.782 | 0.141 | 0.096 | 0.448 | 0.398 | 0.363 | 0.383 | 0.93 | 0.665 | 0.123 | 0.133 | 0.751 | 0.56 | 0.224 | 0.168 | 0.727 | 0.668 | 0.0746 | 0.0864
201T | 0.609 | 0.527 | 0.45 | 0.31 | 0.851 | 0.793 | 0.824 | 0.8 | 1.24 | 1.21 | 1.21 | 0.524 | 0.844 | 0.653 | 0.471 | 0.304 | 0.642 | 0.731 | 0.476 | 0.396
LOU-NH91 | 0.735 | 0.669 | 0.479 | 0.444 | 0.715 | 0.626 | 0.688 | 0.602 | 0.735 | 0.605 | 0.37 | 0.283 | 0.905 | 0.552 | 0.449 | 0.432 | 0.469 | 0.487 | 0.482 | 0.394
PC-3 [JPC-3] | 0.826 | 0.741 | 0.609 | 0.394 | 0.842 | 0.446 | 0.429 | 0.431 | 0.821 | 0.723 | 0.363 | 0.331 | 0.562 | 0.694 | 0.526 | 0.46 | 0.673 | 0.631 | 0.542 | 0.376
NCI-H1666 | 0.817 | 0.685 | 0.733 | 0.491 |  |  | 0.557 | 0.458 | 1.08 | 0.885 | 0.432 | 0.315 | 1.18 | 0.769 | 0.527 | 0.606 | 0.351 | 0.326 | 0.267 | 0.274
EPLC-272H | 0.139 | 0.23 | 0.104 | 0.144 | 0.362 | 0.332 | 0.324 | 0.316 | 0.984 | 1.05 | 1.1 | 0.138 | 0.467 | 0.167 | 0.206 | 0.139 | 0.318 | 0.26 | 0.199 | 0.165
HCC-15 | 1.26 | 1.19 | 0.926 | 0.255 | 0.642 | 0.623 | 0.644 | 0.563 | 0.685 | 0.515 | 0.246 | 0.148 | 0.873 | 0.426 | 0.165 | 0.166 | 0.686 | 0.494 | 0.136 | 0.138
